This is an account of results in patent US20060019241A1, “Na+ and CI-coupled transport system for endogenous opioid peptides” (priority 2004, published 2006).

“Also recorded” adds a separate entry of the source.

Test [1] deals with enkephalin/endorphin transport system in SK—N—SH cells. Put plainly: [^3H]deltorphin II uptake in SK—N—SH cells, effect of peptides and amino acids. Format: cell-based, human. To be noted: for effect on [^3H]deltorphin II uptake (in words): NaCl, 30 minutes, test substance 1 mM; for IC50: read-out: affinity for the transport system (concentration-dependent inhibition of [^3H]deltorphin II uptake), [^3H]deltorphin II 25 nM. The procedure:
(§1) Uptake measurements in control ARPE-19 cells and Tat-ARPE-19 cells. Control ARPE-19 cells and Tat-ARPE-19 cells were maintained in 75-cm^2 culture flasks in Dulbecco's modified Eagle's medium/F12 medium (1:1, volume/volume (v/v)) in the presence of fetal bovine serum (10%) and G418 (100 μg/ml). For uptake measurements, cells were released by trypsin treatment and seeded in 24-well culture plates at an initial density of 0.1×10^6 cells/well. The culture medium was replaced with fresh medium on the second day following the initial seeding and uptake measurements were made on the third day. […] After incubation at 37° C. for a desired time, uptake was terminated by the removal of the medium and washing of the cells with ice-cold uptake buffer. The cells were then dissolved in 1% SDS in 0.2 M NaOH and used for measurement of radioactivity. The uptake buffer in most experiments was 25 mM Hepes/Tris (pH 7.5), containing 140 mM NaCl, 5.4 mM KCl, 1.8 mM CaCl2, 0.8 mM MgSO4 and 5 mM glucose.
Since enkephalins and endorphins are relevant to pain perception and to further provide evidence in support of a role for the transport system in opioidergic neurotransmission, the human neuronal cell line SK—N—SH was tested for expression of the transport system. […] Unless otherwise specified, procedures are as detailed in Example 1.
The concentration of enkephalins and dynorphins was 1 mM.
Finally, the relative affinity of various enkephalins and dynorphins for the transport system in SK—N—SH cells was determined.
To the further characterize the opioid transport of the present invention, various specific peptides that act as positive modulators of the enkephalin/endorphin transport system in the human neuronal cell line SK—N—SH were identified. Unless otherwise specified, procedures are as detailed in Example 1. […] Uptake was measured in the presence of NaCl for 30 minutes. The concentration of the dipeptides was 1 mM.
Uptake was measured in the presence of NaCl for 30 minutes. The concentration of the tripeptides was 1 mM.
Unless otherwise specified, procedures are as described in more detail in Example 1.
The dose-response relationship for the inhibition of the enkephalin/endorphin transport system by L-Lysine and its methyl and ethyl esters is shown in FIG. 15.

Test [2] has as its system deltorphin II transport system in Tat-ARPE-19 cells. In words: Inhibition of [^3H]deltorphin II uptake in Tat-ARPE-19 cells. Format: cell-based, human. The conditions noted are these: for [^3H] Deltorphin II uptake / [^3H] Deltorphin II uptake (%) of control: Tat-ARPE-19 cells, 30 minutes, NaCl, inhibitor 1 mM; for [^3H] Deltorphin II uptake / [^3H] Deltorphin II uptake (%) of control / competition with deltorphin for the uptake process (in words): [^3H]deltorphin II 50 nM; for [^3H] Deltorphin II uptake (%) of control: control = 100; for competition with deltorphin for the uptake process (in words): Tat-ARPE-19 / RPE cells, compound 1 mM.
Description: (§2) Stable transfection of ARPE-19 cells with pcDNA-Tat cDNA. The pGEM2-Tat cDNA construct contained as the insert a 295 basepair (bp) fragment encoding the first exon of HIV-1 Tat gene joined to a 145 bp pET3A transcription terminator. The entire insert (440 bp) was removed from the construct by digestion with PstI and EcoRI and ligated into the multiple cloning region of pcDNA3.1 (−) vector at PstI/EcoRI site so that the insert is downstream of the cytomegalovirus (CMV) promoter. The resultant construct was sequenced to confirm the orientation of the insert. This construct was electroporated into ARPE-19 cells and the stably transfected cell clones were isolated in the presence of Geneticin (G418). To serve as a control, empty pcDNA3.1 vector was electroporated into ARPE-19 cells in an identical manner and the clones harboring the vector were selected by G418 resistance.
as §1
When the influence of Na^+ on the uptake process was investigated, the concentration of NaCl in the uptake buffer was adjusted, as desired, by isoosmotically replacing NaCl with N-methyl-D-glucamine chloride. To assess the influence of Cl^− on the uptake process, the composition of the uptake medium was modified by replacing KCl and CaCl2 with equimolar concentrations of potassium gluconate and calcium gluconate and the concentration of NaCl was adjusted, as desired, by iso-osmotically replacing NaCl with sodium gluconate. Saturation kinetics were analysed by fitting the data to the Michaelis-Menten equation. The Michaelis-Menten constant, Kt, was calculated by non-linear regression analysis and then confirmed by linear regression. Na^+- and Cl^−-activation kinetics were analyzed by fitting the data to the Hill equation and the Hill coefficients for Na^+ and Cl^− (h; the number of Na^+ and Cl^− ions involved in the activation process) and the K0.5 values (the concentration of Na^+ and Cl^−-needed for half-maximal activation) were determined from the analysis. Again, these constants were first calculated by non-linear regression methods and subsequently confirmed by linear regression methods. Experiments were repeated three times in duplicate and the results are given as means±S.E.M.
(§3) Substrate specificity of the deltorphin transport system. […] These peptides consisted of 4-13 amino acids.
Relative affinities of endogenous opioid peptides for the transport system.

The subject of test [3] is deltorphin II transport system in control ARPE-19 cells. In words: Inhibition of [^3H]deltorphin II uptake in control ARPE-19 cells. It counts as cell-based, human. To be noted: [^3H]deltorphin II 50 nM, 30 minutes, NaCl, peptide/antagonist 1 mM; for [^3H] Deltorphin II uptake: control ARPE-19 cells (pcDNA vector alone); for [^3H] Deltorphin II uptake (%) of control: control ARPE-19 cells, control = 100.
Description: as §2, §1, §3

In test [4] the test system is deltorphin II uptake inducible by rMC-1 mRNA in X. laevis oocytes. In words: Deltorphin II uptake in X. laevis oocytes injected with rMC-1 mRNA. Format: cell-based, rat. The conditions noted are these: X. laevis oocytes injected with rMC-1 poly(A)+ mRNA, deltorphin II 125 nM. How it is done:
Therefore, functional expression of the deltorphin II transport system in X. laevis oocytes will be used to clone this transport system. […] Poly(A)+ mRNA was prepared from this cell line for functional expression studies in X. laevis oocytes.

As for `N[C@H](Cc1ccc(O)cc1)C(=O)O` [D-Tyrosine], in test [1] ([^3H]deltorphin II 25 nM), the “effect on [^3H]deltorphin II uptake (in words)” value (“effect” below) is given as “significant inhibition”. Further, in test [2], the “[^3H] Deltorphin II uptake” value is given as 4.05 ± 0.09 pmol/mg protein/30 min and the “[^3H] Deltorphin II uptake (%) of control” value was determined as 52%.
On to `C=CCN1CC[C@]23c4c5ccc(O)c4O[C@H]2C(=O)CC[C@@]3(O)[C@H]1C5` [Naloxone], for which, in test [3], the “[^3H] Deltorphin II uptake” value is on record as 1.01 ± 0.00 pmol/mg protein/30 min and the “[^3H] Deltorphin II uptake (%) of control” value was found to be 94%.
For `O=C1CC[C@@]2(O)[C@H]3Cc4ccc(O)c5c4[C@@]2(CCN3CC2CC2)[C@H]1O5` [Naltrexone], in test [3], the “[^3H] Deltorphin II uptake” value is on record as 1.12 ± 0.02 pmol/mg protein/30 min and the “[^3H] Deltorphin II uptake (%) of control” value amounted to 104%.
For the compound `C[C@]12CC[C@@H]3c4ccc(OS(=O)(=O)O)cc4CC[C@H]3[C@@H]1CCC2=O` [estrone-3-sulfate], the “inhibition of mRNA-induced deltorphin II uptake (in words)” value in test [4] is given as “only a slight inhibition; also recorded: only slightly inhibited”.
Regarding Gly-Gly-Gly, the “effect” value in test [1] ([^3H]deltorphin II 25 nM) is on record as “ability to stimulate the uptake”. Also, in test [2], the “competition with deltorphin for the uptake process (in words)” value (“competition with deltorphin” for short) is on record as “did not compete; also recorded: significant stimulation”, the “[^3H] Deltorphin II uptake” value is given as 9.68 ± 0.39 pmol/mg protein/30 min and the “[^3H] Deltorphin II uptake (%) of control” value is listed as 125%.
On to Gly-Gly-Ile, for which the “influence on kinetic parameters of deltorphin II uptake” value in test [1] (1 mM Gly-Gly-Ile) was “increasing the maximal velocity of the system without affecting the affinity for its substrate”. In addition, the “effect” value in test [1] ([^3H]deltorphin II 25 nM) is listed as “ability to stimulate the uptake; also recorded: stimulated”. In addition, in test [1] ([^3H]deltorphin II 25 nM, peptide 1 mM), the “stimulation of deltorphin II uptake” value was 6- to 8 fold.
With Gly-Gly-Phe, the “effect” value in test [1] ([^3H]deltorphin II 25 nM) is “ability to stimulate the uptake”.
Still for that read-out and setting: the result for Try-Gly-Gly reads “ability to stimulate the uptake”.
Consider Tyr-Gly-Gly-Phe-Leu [Leu-enkephalin], for which the IC50 in test [1] was determined as 7.8 ± 1.2 µM. Besides, in test [2], the “competition with deltorphin” value was “marked inhibition”, the “[^3H] Deltorphin II uptake” value stood at 0.15 ± 0.01 pmol/mg protein/30 min and the “[^3H] Deltorphin II uptake (%) of control” value worked out at 2%.
“Tyr-Gly-Gly-Phe-Leu-Arg-Arg-IIe-Arg-Pro-Lys-Leu-Lys (YGGFLRRIRPKLK) [Dynorphin A (1-13)]”: in test [3], the “[^3H] Deltorphin II uptake” value was 0.04 ± 0.001 pmol/mg protein/30 min and the “[^3H] Deltorphin II uptake (%) of control” value worked out at 4%. The IC50 in test [1] turned out to be 0.15 ± 0.01 µM. The “fold higher affinity than the shorter dynorphins (six to nine amino acids)” value in test [2] (RPE cells) is ~10 fold. In test [2], the “[^3H] Deltorphin II uptake” value was found to be 0.07 ± 0.01 pmol/mg protein/30 min and the “[^3H] Deltorphin II uptake (%) of control” value is on record as 1%.
For the compound Tyr-Gly-Gly-Phe-Met [Met-enkephalin], in test [3], the “[^3H] Deltorphin II uptake” value amounted to 0.06 ± 0.004 pmol/mg protein/30 min and the “[^3H] Deltorphin II uptake (%) of control” value was determined as 5%. For the same compound, in test [1], the IC50 was 10.7 ± 3.1 µM. In test [2], the “competition with deltorphin” value was “marked inhibition”, the “[^3H] Deltorphin II uptake” value is listed as 0.50 ± 0.01 pmol/mg protein/30 min and the “[^3H] Deltorphin II uptake (%) of control” value is given as 6%.
Regarding “YGGFLR [Dynorphin A (1-6), Tyr-Gly-Gly-Phe-Leu-Arg]”, the “[^3H] Deltorphin II uptake” value in test [3] is 0.06 ± 0.001 pmol/mg protein/30 min; in test [2], 0.12 ± 0.00 pmol/mg protein/30 min. Further, the “[^3H] Deltorphin II uptake (%) of control” value in test [3] is on record as 5%; in test [2] it was 2%. In addition, the IC50 in test [1] was found to be 3.5 ± 0.4 µM.
Taken in the same sequence, the figures for “YGGFLRR [Dynorphin A (1-7), Tyr-Gly-Gly-Phe-Leu-Arg-Arg]” were 0.05 ± 0.002 pmol/mg protein/30 min, 0.10 ± 0.02 pmol/mg protein/30 min, 5%, 1% and 4.6 ± 1.1 µM.
Take YGGFLRRQF [Dynorphin B (1-9)]: the “[^3H] Deltorphin II uptake” value in test [3] stood at 0.06 ± 0.000 pmol/mg protein/30 min; in test [2], 0.08 ± 0.01 pmol/mg protein/30 min. Also, the “[^3H] Deltorphin II uptake (%) of control” value is on record as 5% in test [3] and 1% in test [2]. For the same compound, the figures for the “inhibition of mRNA-induced deltorphin II uptake (in words)” value in test [4] (listed as dynorphin B 1-9) and in test [4] (listed as dynorphin B1-9) were “completely inhibitable” and “completely inhibited”, respectively.
“YGGFMRF [[Arg^6, Phe^7] Met-enkephalin, Tyr-Gly-Gly-Phe-Met-Arg-Phe]”: in test [3], the “[^3H] Deltorphin II uptake” value amounted to 0.05 ± 0.001 pmol/mg protein/30 min and the “[^3H] Deltorphin II uptake (%) of control” value came to 4%. In addition, in test [2], the “[^3H] Deltorphin II uptake” value is given as 0.11 ± 0.01 pmol/mg protein/30 min and the “[^3H] Deltorphin II uptake (%) of control” value turned out to be 1%.
Consider “YGGFMRGL [[Arg^6, Gly^7, Leu^8[ Met-enkephalin]”, for which, in test [3], the “[^3H] Deltorphin II uptake” value came to 0.04 ± 0.001 pmol/mg protein/30 min and the “[^3H] Deltorphin II uptake (%) of control” value was found to be 4%. For the same compound, in test [2], the “[^3H] Deltorphin II uptake” value was 0.09 ± 0.01 pmol/mg protein/30 min and the “[^3H] Deltorphin II uptake (%) of control” value was 1%.
